Source: patent US20050009154A1, “Biocatalytic preparation of 1-cyano-cyclohexaneacetic acid” (Pfizer Inc, priority 2003, published 2005)
In brackets after ≈: the same amount, converted by molar mass.

Assay: aqueous solubility of the starting material
Type: physicochemical
Settings: aqueous buffer; 25° C., 20 mM phosphate buffer, pH 7; read-out: water solubility (aqueous solubility limit)
Description: The enzyme-catalyzed conversion of II to I can be carried out by contacting II with the enzyme catalyst in an aqueous reaction mixture. Compound II, the starting material, which is only moderately water soluble, (ca. 10 mM, 25° C., 20 mM phosphate buffer, pH 7), can be added to an aqueous reaction containing the enzyme catalyst at levels exceeding its aqueous solubility limit. Thus reaction mixtures initially consist of two phases, an aqueous phase containing dissolved II and the enzyme catalyst, and a solid phase containing undissolved II. At complete conversion of II, a single phase containing compound I and the enzyme catalyst remains. The enzyme catalyzed conversion of II to I can be carried out with levels of compound II from about 0.1 g/L to 148 g/L, with a preferred range of about 0.1 g/L to 90 g/L. The enzyme catalyst concentrations used in the present invention depend on the specific activity of the enzyme catalyst and is chosen to obtain the desired rate of reaction.

N#CCC1(C#N)CCCCC1 [Compound II, 1-cyanocyclohexaneacetonitrile]
solubility: ~10 mM (≈ 1480 µg/mL)
